These are literature values, as cited in patent publication US7091196B2, “Bifunctional heterocyclic compounds and methods of making and using same” (Rib-X Pharmaceuticals, Inc., priority 2002, dated 2006).

For the data set the following is noted: literature report, Gregory et al. (1989) J. Med. Chem. 32: 1673-1681.

Take `COC(=O)c1nnn(C[C@@H]2CN(c3ccc(C(C)=O)cc3)C(=O)O2)c1C(=O)OC` [Compound 6]: the “activity as an antibacterial agent” value was “inactive”.
